# Data published in ChEMBL document CHEMBL4152347 (J Med Chem, 2018).
# Assays:
# in vivo [1] = details: Sprague-Dawley, rat, po, 5 mg/kg
# in vitro [2] = details: human, liver microsomes
# Description: Half life in human liver microsomes at 0.5 uM after 1 hr in presence of NADPH by LC-MS/MS analysis
# [3] = Dissociation constant, pKa of the compound; type: physicochemical
# in vitro [4] = details: rat, liver microsomes
# Description: Half life in rat liver microsomes at 0.5 uM after 1 hr in presence of NADPH by LC-MS/MS analysis
# [5] = test system: Human immunodeficiency virus 1; assay: microbe, parasite or virus in culture; details: Human immunodeficiency virus 1, MT2
# Description: Antiviral activity against HIV1 expressing gag delta V370 mutant infected in human MT2 cells after 4 to 5 days by dual luciferase reporter gene assay
# [6] = test system: Human immunodeficiency virus 1; assay: microbe, parasite or virus in culture; details: Human immunodeficiency virus 1, MT2; remark: listed apart in the source
# in vitro [7] = details: human, MT2 cells
# Description: Cytotoxicity against human MT2 cells assessed as reduction in cell viability
# physchem = details: aqueous
# Description: Aqueous solubility of the compound
# [8] = test system: Human immunodeficiency virus 1; assay: microbe, parasite or virus in culture; details: Human immunodeficiency virus 1, MT2; remark: listed apart in the source
# Description: Antiviral activity against wild type HIV1 infected in human MT2 cells after 4 to 5 days by dual luciferase reporter gene assay
# in vivo [9] = details: Sprague-Dawley, rat, po, 5 mg/kg; remark: listed apart in the source
# [10] = Drug metabolism in human plasma assessed as mono-oxidation product formation at 5 mg/kg, po administered via gavage by LC-MS/MS analysis; type: ADME, organism-based; details: in vivo
# [11] = (§1) Drug metabolism in cynomolgus monkey plasma assessed as 4-((1R,3aS,5aR,5bR,7aR,11aS,11bR,13aR,13bR)-3a-amino-5a,5b,8,8,11a-pentamethyl-1-(prop-1-en-2-yl)-2,3,3a,4,5,5a,5b,6,7,7a,8,11,11a,11b,12,13,13a,13b-octadecahydro-1H-cyclopenta[a]chrysen-9-yl)benzoic acid formation at 5 mg/kg, po administered via gavage by LC-MS/MS analysis; type: ADME, organism-based, Macaca fascicularis; details: in vivo
# [12] = Drug metabolism in Sprague-Dawley rat plasma assessed as mono-oxidation product formation at 5 mg/kg, po administered via gavage by LC-MS/MS analysis; type: ADME, organism-based; details: in vivo
# [13] = Drug metabolism in beagle dog plasma assessed as mono-oxidation product formation at 5 mg/kg, po administered via gavage by LC-MS/MS analysis; type: ADME, organism-based, Canis lupus familiaris; details: in vivo
# [14] = (§2) Drug metabolism in beagle dog plasma assessed as (2S,3S,4S,5R,6S)-6-[4-[(1R,3aS,5aR,5bR,7aR,11aS,11bR,13aR,13bR)-3a-[2-(1,1-dioxo-1,4-thiazinan-4-yl)ethylamino]-1-isopropenyl-5a,5b,8,8,11a-pentamethyl-1,2,3,4,5,6,7,7a,11,11b,12,13,13a,13b-tetradecahydrocyclopenta[a]chrysen-9-yl]benzoyl]oxy-3,4,5-trihydroxy-tetrahydropyran-2-carboxylic acid formation at 5 mg/kg, po administered via gavage by LC-MS/MS analysis; type: ADME, organism-based, Canis lupus familiaris; details: in vivo
# [15] = Drug metabolism in beagle dog plasma assessed as 4-((1R,3aS,5aR,5bR,7aR,11aS,11bR,13aR,13bR)-3a-amino-5a,5b,8,8,11a-pentamethyl-1-(prop-1-en-2-yl)-2,3,3a,4,5,5a,5b,6,7,7a,8,11,11a,11b,12,13,13a,13b-octadecahydro-1H-cyclopenta[a]chrysen-9-yl)benzoic acid formation at 5 mg/kg, po administered via gavage by LC-MS/MS analysis; type: ADME, organism-based, Canis lupus familiaris; details: in vivo
# [16] = as §1, with “Sprague-Dawley rat” for “cynomolgus monkey”; type: ADME, organism-based; details: in vivo
# [17] = Drug metabolism in Sprague-Dawley rat plasma assessed as (2S,3S,4S,5R,6S)-6-[4-[(1R,3aS,5aR,5bR,7aR,11aS,11bR,13aR,13bR)-3a-[2-(1,1-dioxo-1,4-thiazinan-4-yl)ethylamino]-1-isopropenyl-5a,5b,8,8,11a-pentamethyl-1,2,3,4,5,6,7,7a,11,11b,12,13,13a,13b-tetradecahydrocyclopenta[a]chrysen-9-yl]benzoyl]oxy-3,4,5-trihydroxy-tetrahydropyran-2-carboxylic acid formation at 5 mg/kg, po administered via gavage by LC-MS/MS analysis; type: ADME, organism-based; details: in vivo
# [18] = Drug metabolism in cynomolgus monkey plasma assessed as (2S,3S,4S,5R,6S)-6-[4-[(1R,3aS,5aR,5bR,7aR,11aS,11bR,13aR,13bR)-3a-[2-(1,1-dioxo-1,4-thiazinan-4-yl)ethylamino]-1-isopropenyl-5a,5b,8,8,11a-pentamethyl-1,2,3,4,5,6,7,7a,11,11b,12,13,13a,13b-tetradecahydrocyclopenta[a]chrysen-9-yl]benzoyl]oxy-3,4,5-trihydroxy-tetrahydropyran-2-carboxylic acid formation at 5 mg/kg, po administered via gavage by LC-MS/MS analysis; type: ADME, organism-based, Macaca fascicularis; details: in vivo
# [19] = as §1, with “human” for “cynomolgus monkey”; type: ADME, organism-based; details: in vivo
# [20] = Drug metabolism in cynomolgus monkey plasma assessed as mono-oxidation product formation at 5 mg/kg, po administered via gavage by LC-MS/MS analysis; type: ADME, organism-based, Macaca fascicularis; details: in vivo
# [21] = as §2, with “human” for “beagle dog”; type: ADME, organism-based; details: in vivo
# [22] = test system: Human immunodeficiency virus 1; assay: microbe, parasite or virus in culture; details: Human immunodeficiency virus 1, MT2; remark: listed apart in the source
# Description: Antiviral activity against wild type HIV1 infected in human MT2 cells after 4 to 5 days in presence of 10% FBS and 40% human serum albumin by dual luciferase reporter gene assay
# [23] = Solubility of compound in fasted state simulated intestinal fluid at pH 6.5; type: physicochemical
# [24] = Solubility of compound in fed state simulated intestinal fluid at pH 5; type: physicochemical
# [25] = (§3) Drug level in cynomolgus monkey plasma treated with [14C]4-[(1R,3aS,5aR,5bR,7aR,11aS,11bR,13aR,13bR)-3a-[2-(1,1-dioxo-1,4-thiazinan-4-yl)ethylamino]-1-isopropenyl-5a,5b,8,8,11a-pentamethyl-1,2,3,4,5,6,7,7a,11,11b,12,13,13a,13b-tetradecahydrocyclopenta[a]chrysen-9-yl]benzoic acid at 5 mg/kg, po administered via gavage by LC-MS/MS analysis; type: ADME, organism-based, Macaca fascicularis; details: in vivo
# [26] = as §3, with “human” for “cynomolgus monkey”; type: ADME, organism-based; details: in vivo
# [27] = as §3, with “Sprague-Dawley rat” for “cynomolgus monkey”, “acid” for “acid at 5 mg/kg, po administered via gavage”; type: ADME, cell-free
# [28] = as §3, with “beagle dog” for “cynomolgus monkey”; type: ADME, organism-based, Canis lupus familiaris; details: in vivo
# [29] = test system: Human immunodeficiency virus 1; assay: Ratio of EC50 for antiviral activity against wild type HIV1 infected in human MT2 cells after 4 to 5 days in presence of 10% FBS plus […] by dual luciferase reporter gene assay to EC50 for antiviral activity against wild type HIV1 infected in human MT2 cells after 4 to 5 days by dual luciferase reporter gene assay; type: functional
SMILES,AUC(0-t) at 24 h (in vivo [1]),"half-life at 1 h, 0.5 µM (in vitro [2])","half-life at 1 h, 0.5 µM (in vitro [4])",EC50 [5],EC50 [6],CC50 (in vitro [7]),EC50 [8],EC50 [22],further results
C=C(C)[C@@H]1CC[C@]2(CNCCCN3CCS(=O)(=O)CC3)CC[C@]3(C)[C@H](CC[C@@H]4[C@@]5(C)CC=C(c6ccc(C(=O)O)cc6)C(C)(C)[C@@H]5CC[C@]43C)[C@@H]12,3.15 µM·h,> 2 h,> 2 h,–,–,–,–,–,pKa [3]: 5.4
C=C(C)[C@@H]1CC[C@]2(NCCN3CCS(=N)(=O)CC3)CC[C@]3(C)[C@H](CC[C@@H]4[C@@]5(C)CC=C(c6ccc(C(=O)O)cc6)C(C)(C)[C@@H]5CC[C@]43C)[C@@H]12,20.7 µM·h,> 2 h,> 2 h,7.5 nM,1.5 nM,14000 nM,1.1 nM,–,solubility (physchem): < 1 µg/mL
C=C(C)[C@@H]1CC[C@]2(C(=O)NCCCN3CCS(=O)(=O)CC3)CC[C@]3(C)[C@H](CC[C@@H]4[C@@]5(C)CC=C(c6ccc(C(=O)O)cc6)C(C)(C)[C@@H]5CC[C@]43C)[C@@H]12,–,> 2 h,> 2 h,42.8 nM,1.4 nM,10600 nM,2.1 nM,–,AUC(0-t) at 6 h (in vivo [9]): 1.28 µM·h
C=C(C)[C@@H]1CC[C@]2(NCCN3CCS(=O)(=O)CC3)CC[C@]3(C)[C@H](CC[C@@H]4[C@@]5(C)CC=C(c6ccc([14C](=O)O)cc6)C(C)(C)[C@@H]5CC[C@]43C)[C@@H]12,–,–,–,–,–,–,–,–,Drug metabolism [10]: Metabolite_Detected; Drug metabolism [11]: Metabolite_Detected; Drug metabolism [12]: Metabolite_Detected; Drug metabolism [13]: Metabolite_Detected; Drug metabolism [14]: Metabolite_Detected; Drug metabolism [15]: Metabolite_Detected; Drug metabolism [16]: Metabolite_Detected; Drug metabolism [17]: Metabolite_Detected; Drug metabolism [18]: Metabolite_Detected; Drug metabolism [19]: Metabolite_Detected; Drug metabolism [20]: Metabolite_Detected; Drug metabolism [21]: Metabolite_Detected
C=C(C)[C@@H]1CC[C@]2(NCCN3CCC(F)(F)CC3)CC[C@]3(C)[C@H](CC[C@@H]4[C@@]5(C)CC=C(c6ccc(C(=O)O)cc6)C(C)(C)[C@@H]5CC[C@]43C)[C@@H]12,–,> 2 h,> 2 h,67.5 nM,14.1 nM,> 10000 nM,5.1 nM,–,pKa [3]: 8.5
C=C(C)[C@@H]1CC[C@]2(NCCCN3CCS(=O)(=O)CC3)CC[C@]3(C)[C@H](CC[C@@H]4[C@@]5(C)CC=C(c6ccc(C(=O)O)cc6)C(C)(C)[C@@H]5CC[C@]43C)[C@@H]12,9.61 µM·h,> 2 h,> 2 h,37.3 nM,7.5 nM,15800 nM,3.5 nM,23.6 nM,AUC(0-t) at 6 h (in vivo [9]): 9.36 µM·h
C=C(C)[C@@H]1CC[C@]2(NCCN3CCS(=O)(=O)CC3)CC[C@]3(C)[C@H](CC[C@@H]4[C@@]5(C)CC=C(c6ccc(C(=O)O)c(F)c6)C(C)(C)[C@@H]5CC[C@]43C)[C@@H]12,24.3 µM·h,> 2 h,> 2 h,9.7 nM,3.4 nM,7800 nM,2.8 nM,12.8 nM,solubility [23]: 140 µg/mL; solubility [24]: 330 µg/mL; solubility (physchem): < 1 µg/mL
C=C(C)[C@@H]1CC[C@]2(NCCN3CCS(=O)(=O)CC3)CC[C@]3(C)[C@H](CC[C@@H]4[C@@]5(C)CC=C(c6ccc(C(=O)OC)cc6)C(C)(C)[C@@H]5CC[C@]43C)[C@@H]12,–,–,–,–,–,–,–,–,Drug uptake [25]: Active; Drug uptake [26]: Active; Drug uptake [27]: Active; Drug uptake [28]: Active
C=C(C)[C@@H]1CC[C@]2(NCCO)CC[C@]3(C)[C@H](CC[C@@H]4[C@@]5(C)CC=C(c6ccc(C(=O)O)cc6)C(C)(C)[C@@H]5CC[C@]43C)[C@@H]12,–,> 2 h,> 2 h,66 nM,9.9 nM,8480 nM,–,–,AUC(0-t) at 6 h (in vivo [9]): 4.98 µM·h
C=C(C)[C@@H]1CC[C@]2(NCCN3CCCS(=O)(=O)CC3)CC[C@]3(C)[C@H](CC[C@@H]4[C@@]5(C)CC=C(c6ccc(C(=O)O)cc6)C(C)(C)[C@@H]5CC[C@]43C)[C@@H]12,–,> 2 h,> 2 h,–,–,4900 nM,3.6 nM,35.1 nM,Ratio EC50 [29]: 9.7
C=C(C)[C@@H]1CC[C@]2(NCCN3CCN(S(C)(=O)=O)CC3)CC[C@]3(C)[C@H](CC[C@@H]4[C@@]5(C)CC=C(c6ccc(C(=O)O)cc6)C(C)(C)[C@@H]5CC[C@]43C)[C@@H]12,28.6 µM·h,> 2 h,> 2 h,27.2 nM,5.2 nM,10700 nM,3.3 nM,26.1 nM,solubility (physchem): < 1 µg/mL
C=C(C)[C@@H]1CC[C@]2(NCCN3C[C@@H]4C[C@H]3CS4(=O)=O)CC[C@]3(C)[C@H](CC[C@@H]4[C@@]5(C)CC=C(c6ccc(C(=O)O)cc6)C(C)(C)[C@@H]5CC[C@]43C)[C@@H]12,27 µM·h,> 2 h,> 2 h,7.7 nM,2.8 nM,7340 nM,1.9 nM,11.1 nM,solubility (physchem): < 1 µg/mL
C=C(C)[C@@H]1CC[C@]2(NCCN3CCOCC3)CC[C@]3(C)[C@H](CC[C@@H]4[C@@]5(C)CC=C(c6ccc(C(=O)O)cc6)C(C)(C)[C@@H]5CC[C@]43C)[C@@H]12,–,> 2 h,> 2 h,47.4 nM,13.2 nM,> 10000 nM,8.3 nM,–,pKa [3]: 8.2
C=C(C)[C@@H]1CC[C@]2(NC(=O)CN3CCS(=O)(=O)CC3)CC[C@]3(C)[C@H](CC[C@@H]4[C@@]5(C)CC=C(c6ccc(C(=O)O)cc6)C(C)(C)[C@@H]5CC[C@]43C)[C@@H]12,–,> 2 h,> 2 h,18.9 nM,3.5 nM,9900 nM,2.1 nM,–,AUC(0-t) at 6 h (in vivo [9]): 8.74 µM·h
C=C(C)[C@@H]1CC[C@]2(N)CC[C@]3(C)[C@H](CC[C@@H]4[C@@]5(C)CC=C(c6ccc(C(=O)O)cc6)C(C)(C)[C@@H]5CC[C@]43C)[C@@H]12,–,–,–,–,–,–,–,–,Drug uptake [25]: Active; Drug uptake [26]: Active; Drug uptake [27]: Active; Drug uptake [28]: Active
